Assay results reported in publication PMC5218480 (PLoS ONE, 2017).

Tested on: MV-4-11 cells
Experiment: Gene expression microarray analysis (Affymetrix PrimeView) and GSEA
Format: cell-based, human
Parameters: RFU PODN (11730768_x_at) / Fold change /veh PODN (11730768_x_at) / RFU LINC00158 (11744669_a_at) / Fold change /veh LINC00158 (11744669_a_at) / RFU DUSP10 (11751237_a_at) / Fold change /veh DUSP10 (11751237_a_at) / RFU ID3 (11757404_x_at) / Fold change /veh ID3 (11757404_x_at) / RFU PLEKHG5 (11737974_s_at) / Fold change /veh PLEKHG5 (11737974_s_at) / RFU LRRC4B (11730491_at) / Fold change /veh LRRC4B (11730491_at) / RFU GIMAP4 (11747438_a_at) / Fold change /veh GIMAP4 (11747438_a_at) / RFU KRT8 (11758183_x_at) / Fold change /veh KRT8 (11758183_x_at) / RFU CNN1 (11734310_a_at) / Fold change /veh CNN1 (11734310_a_at) / RFU VPS37D (11726825_at) / Fold change /veh VPS37D (11726825_at) / RFU C10orf10 (11716522_x_at) / Fold change /veh C10orf10 (11716522_x_at) / RFU KIR2DL2 /// KIR2DL4 /// KIR2DL5A /// KIR2DL5B /// KIR2DS1 /// KIR2DS2 /// KIR2DS3 /// KIR2DS4 /// KIR3DL3 /// KIR3DL3 /// KIR3DS1 (11738374_at) / Fold change /veh KIR2DL2 /// KIR2DL4 /// KIR2DL5A /// KIR2DL5B /// KIR2DS1 /// KIR2DS2 /// KIR2DS3 /// KIR2DS4 /// KIR3DL3 /// KIR3DL3 /// KIR3DS1 (11738374_at) / RFU C1QL1 (11718748_at) / Fold change /veh C1QL1 (11718748_at) / RFU TMPRSS4 (11747572_a_at) / Fold change /veh TMPRSS4 (11747572_a_at) / RFU HAMP (11756126_x_at) / Fold change /veh HAMP (11756126_x_at) / RFU RNFT2 (11725882_a_at) / Fold change /veh RNFT2 (11725882_a_at) / RFU NR4A2 (11747474_a_at) / Fold change /veh NR4A2 (11747474_a_at) / RFU ABCC12 (11746883_a_at) / Fold change /veh ABCC12 (11746883_a_at) / RFU TMEM136 (11760407_x_at) / Fold change /veh TMEM136 (11760407_x_at) / RFU CLDN22 /// WWC2 (11732394_at) / Fold change /veh CLDN22 /// WWC2 (11732394_at) / RFU HLA-DPB1 (11760878_x_at) / Fold change /veh HLA-DPB1 (11760878_x_at) / RFU SPINT1 (11716480_a_at) / Fold change /veh SPINT1 (11716480_a_at) / RFU GAP43 (11754022_s_at) / Fold change /veh GAP43 (11754022_s_at) / RFU A4GNT (11735810_at) / Fold change /veh A4GNT (11735810_at) / RFU PRB3 (11715151_x_at) / Fold change /veh PRB3 (11715151_x_at) / RFU TUBB4B (11761932_at) / Fold change /veh TUBB4B (11761932_at) / RFU CAPN14 (11732068_a_at) / Fold change /veh CAPN14 (11732068_a_at) / RFU TMCC2 (11721928_a_at) / Fold change /veh TMCC2 (11721928_a_at) / RFU IRGQ (11745062_a_at) / Fold change /veh IRGQ (11745062_a_at) / RFU FAM174B (11720279_a_at) / Fold change /veh FAM174B (11720279_a_at) / RFU TMPRSS4 (11748680_a_at) / Fold change /veh TMPRSS4 (11748680_a_at) / RFU FAM212B (11763350_a_at) / Fold change /veh FAM212B (11763350_a_at) / RFU PLEKHG5 (11743358_a_at) / Fold change /veh PLEKHG5 (11743358_a_at) / RFU ZSCAN30 (11745921_a_at) / Fold change /veh ZSCAN30 (11745921_a_at) / RFU CMKLR1 (11741424_a_at) / Fold change /veh CMKLR1 (11741424_a_at) / RFU LOC101060620 /// MAPK8IP1 (11723275_at) / Fold change /veh LOC101060620 /// MAPK8IP1 (11723275_at) / RFU SPTSSB (11747773_x_at) / Fold change /veh SPTSSB (11747773_x_at) / RFU PRSS12 (11739890_at) / Fold change /veh PRSS12 (11739890_at) / RFU BIN1 (11741810_x_at) / Fold change /veh BIN1 (11741810_x_at) / RFU WNT11 (11732464_a_at) / Fold change /veh WNT11 (11732464_a_at) / RFU C10orf10 (11716521_a_at) / Fold change /veh C10orf10 (11716521_a_at) / RFU C5orf56 (11738089_at) / Fold change /veh C5orf56 (11738089_at) / RFU CYB561 (11721691_x_at) / Fold change /veh CYB561 (11721691_x_at) / RFU ANKRD19P (11752326_a_at) / Fold change /veh ANKRD19P (11752326_a_at) / RFU OR2T12 /// OR2T33 /// OR2T8 (11738714_s_at) / Fold change /veh OR2T12 /// OR2T33 /// OR2T8 (11738714_s_at) / RFU VCAN (11748164_a_at) / Fold change /veh VCAN (11748164_a_at) / RFU JSRP1 (11732532_at) / Fold change /veh JSRP1 (11732532_at) / RFU KRTAP10-11 (11738290_x_at) / Fold change /veh KRTAP10-11 (11738290_x_at) / RFU MYO3A (11730013_a_at) / Fold change /veh MYO3A (11730013_a_at) / RFU EBF3 (11725865_a_at) / Fold change /veh EBF3 (11725865_a_at) / RFU CAMK2N1 (11719241_x_at) / Fold change /veh CAMK2N1 (11719241_x_at) / RFU C5orf56 (11738088_a_at) / Fold change /veh C5orf56 (11738088_a_at) / RFU OLFML3 (11715873_a_at) / Fold change /veh OLFML3 (11715873_a_at) / RFU LOC100653217 /// NTM (11731650_a_at) / Fold change /veh LOC100653217 /// NTM (11731650_a_at) / RFU MAPK11 (11762145_a_at) / Fold change /veh MAPK11 (11762145_a_at) / RFU FIZ1 (11724087_x_at) / Fold change /veh FIZ1 (11724087_x_at) / RFU OASL (11726364_x_at) / Fold change /veh OASL (11726364_x_at) / RFU SOX15 (11748057_x_at) / Fold change /veh SOX15 (11748057_x_at) / RFU CD79A (11719716_a_at) / Fold change /veh CD79A (11719716_a_at) / RFU HIST1H1D (11736915_at) / Fold change /veh HIST1H1D (11736915_at) / RFU CASKIN2 (11723855_a_at) / Fold change /veh CASKIN2 (11723855_a_at) / RFU LOC730098 (11760151_x_at) / Fold change /veh LOC730098 (11760151_x_at) / RFU OR4N2 (11742367_at) / Fold change /veh OR4N2 (11742367_at) / RFU PRRT2 (11749266_a_at) / Fold change /veh PRRT2 (11749266_a_at) / RFU SNX32 (11753110_a_at) / Fold change /veh SNX32 (11753110_a_at) / RFU CDHR5 (11726645_a_at) / Fold change /veh CDHR5 (11726645_a_at) / RFU RCAN1 (11760418_a_at) / Fold change /veh RCAN1 (11760418_a_at) / RFU FAM167A (11723789_a_at) / Fold change /veh FAM167A (11723789_a_at) / RFU FAM26E (11764081_at) / Fold change /veh FAM26E (11764081_at) / RFU ISYNA1 (11749810_s_at) / Fold change /veh ISYNA1 (11749810_s_at) / RFU ACY1 (11761880_at) / Fold change /veh ACY1 (11761880_at) / RFU 11764098_at / Fold change /veh 11764098_at / RFU SAMD14 (11745864_x_at) / Fold change /veh SAMD14 (11745864_x_at) / RFU NPB (11741838_a_at) / Fold change /veh NPB (11741838_a_at) / RFU TMPRSS6 (11731388_a_at) / Fold change /veh TMPRSS6 (11731388_a_at) / RFU KRTAP10-2 (11738614_at) / Fold change /veh KRTAP10-2 (11738614_at) / RFU ARHGAP8 /// PRR5-ARHGAP8 (11727945_x_at) / Fold change /veh ARHGAP8 /// PRR5-ARHGAP8 (11727945_x_at) / RFU KRTAP5-7 /// NADSYN1 (11734609_at) / Fold change /veh KRTAP5-7 /// NADSYN1 (11734609_at) / RFU RASL12 (11751679_a_at) / Fold change /veh RASL12 (11751679_a_at) / RFU CDKN2B (11736163_a_at) / Fold change /veh CDKN2B (11736163_a_at) / RFU PRF1 (11729649_at) / Fold change /veh PRF1 (11729649_at) / RFU, ZNF638 /// ZNF638-IT1 / Fold change vs veh, ZNF638 /// ZNF638-IT1 / RFU, PANK3 / Fold change vs veh, PANK3 / RFU, SH3YL1 / Fold change vs veh, SH3YL1 / RFU, ZEB2 / Fold change vs veh, ZEB2 / RFU, NRIP1 / Fold change vs veh, NRIP1 / RFU, PTTG1IP / Fold change vs veh, PTTG1IP / RFU, CAPN2 / Fold change vs veh, CAPN2 / RFU, MED14 / Fold change vs veh, MED14 / RFU, SNORA58 / Fold change vs veh, SNORA58 / RFU, C1orf63 / Fold change vs veh, C1orf63 / RFU, LRRFIP1 / Fold change vs veh, LRRFIP1 / RFU, NDUFAF7 / Fold change vs veh, NDUFAF7 / RFU, SLC12A2 / Fold change vs veh, SLC12A2 / RFU, IBTK / Fold change vs veh, IBTK / RFU, ESF1 / Fold change vs veh, ESF1 / Fold change vs veh, TMEM50B / RFU, TAOK1 / Fold change vs veh, TAOK1 / RFU, ACBD3 / Fold change vs veh, ACBD3 / RFU, TMA16 / Fold change vs veh, TMA16 / RFU, RWDD3 / Fold change vs veh, RWDD3 / RFU, BCAT1 / Fold change vs veh, BCAT1 / RFU, EDEM3 / Fold change vs veh, EDEM3 / RFU, TMEM33 / Fold change vs veh, TMEM33 / RFU, WDR75 / Fold change vs veh, WDR75 / RFU, AHCTF1 / Fold change vs veh, AHCTF1 / RFU, TFRC / Fold change vs veh, TFRC / RFU, ZDHHC17 / Fold change vs veh, ZDHHC17 / RFU, NOM1 / Fold change vs veh, NOM1 / RFU, ARL8B / Fold change vs veh, ARL8B / RFU, ZBTB11 / Fold change vs veh, ZBTB11 / RFU, TAMM41 / Fold change vs veh, TAMM41 / RFU, KIAA1704 /// LOC100996395 / Fold change vs veh, KIAA1704 /// LOC100996395 / RFU, ING1 / Fold change vs veh, ING1 / RFU, TRMT61B / Fold change vs veh, TRMT61B / RFU, FUBP3 / Fold change vs veh, FUBP3 / RFU, TP53 / Fold change vs veh, TP53 / RFU, TNKS2 / Fold change vs veh, TNKS2 / RFU, ZFP14 / Fold change vs veh, ZFP14 / RFU, ACTR2 / Fold change vs veh, ACTR2 / RFU, PPP3R1 / Fold change vs veh, PPP3R1 / RFU, PIK3R1 / Fold change vs veh, PIK3R1 / RFU, HNRNPA1 / Fold change vs veh, HNRNPA1 / RFU, RNF170 / Fold change vs veh, RNF170 / RFU, ZNF28 / Fold change vs veh, ZNF28 / RFU, RNGTT / Fold change vs veh, RNGTT / RFU, OGT / Fold change vs veh, OGT / RFU, BRD1 / Fold change vs veh, BRD1 / RFU, MARS / Fold change vs veh, MARS / RFU, ZNF655 / Fold change vs veh, ZNF655 / RFU, FAHD1 / Fold change vs veh, FAHD1 / RFU, BDP1 / Fold change vs veh, BDP1 / RFU, LRRCC1 / Fold change vs veh, LRRCC1 / RFU, ARID1A / Fold change vs veh, ARID1A / RFU, ZNF146 / Fold change vs veh, ZNF146 / RFU, ZNF330 / Fold change vs veh, ZNF330 / RFU, GPN3 / Fold change vs veh, GPN3 / RFU, C9orf123 / Fold change vs veh, C9orf123 / RFU, N4BP2L2 / Fold change vs veh, N4BP2L2 / RFU, ARFIP1 / Fold change vs veh, ARFIP1 / RFU, FAM179B / Fold change vs veh, FAM179B / RFU, BCL10 / Fold change vs veh, BCL10 / RFU, UHRF1BP1L / Fold change vs veh, UHRF1BP1L / RFU, BET1 / Fold change vs veh, BET1 / RFU, CNOT2 / Fold change vs veh, CNOT2 / RFU, ZNF268 / Fold change vs veh, ZNF268 / Fold change vs veh, ZNF507 / RFU, DGCR2 / Fold change vs veh, DGCR2 / RFU, WDSUB1 / Fold change vs veh, WDSUB1 / Fold change vs veh, HSP90B1 /// MIR3652 / RFU, ADSS / Fold change vs veh, ADSS / RFU, GK / Fold change vs veh, GK / RFU, ZNF148 / Fold change vs veh, ZNF148 / RFU, TAF9 / Fold change vs veh, TAF9 / RFU, SLC1A5 / Fold change vs veh, SLC1A5 / RFU, SLMO2 / Fold change vs veh, SLMO2 / RFU, ABCC4 / Fold change vs veh, ABCC4 / RFU, LOC101060439 /// RAP1B / Fold change vs veh, LOC101060439 /// RAP1B / RFU, RFX7 / Fold change vs veh, RFX7 / RFU, GTPBP10 / Fold change vs veh, GTPBP10 / RFU, CNEP1R1 / Fold change vs veh, CNEP1R1 / RFU, BIVM-ERCC5 /// ERCC5 / Fold change vs veh, BIVM-ERCC5 /// ERCC5 / RFU, ILF3 / Fold change vs veh, ILF3 / RFU 11762660_at / Fold change /veh 11762660_at / RFU VCAN (11757783_s_at) / Fold change /veh VCAN (11757783_s_at) / RFU DDX43 (11728927_at) / Fold change /veh DDX43 (11728927_at) / RFU KRT8 (11758188_x_at) / Fold change /veh KRT8 (11758188_x_at) / RFU NKD1 (11759106_at) / Fold change /veh NKD1 (11759106_at) / RFU SRD5A1 (11742802_a_at) / Fold change /veh SRD5A1 (11742802_a_at) / RFU TPSAB1 /// TPSB2 (11721975_s_at) / Fold change /veh TPSAB1 /// TPSB2 (11721975_s_at) / RFU GSTM3 (11746129_a_at) / Fold change /veh GSTM3 (11746129_a_at) / RFU IL23R (11737362_x_at) / Fold change /veh IL23R (11737362_x_at) / RFU TMEM51 (11727254_a_at) / Fold change /veh TMEM51 (11727254_a_at) / RFU PIWIL2 (11732686_x_at) / Fold change /veh PIWIL2 (11732686_x_at) / RFU ORM1 (11744905_x_at) / Fold change /veh ORM1 (11744905_x_at) / RFU CCDC152 (11743942_at) / Fold change /veh CCDC152 (11743942_at) / RFU ECM1 (11717891_a_at) / Fold change /veh ECM1 (11717891_a_at) / RFU IL23R (11748794_a_at) / Fold change /veh IL23R (11748794_a_at) / RFU TNFAIP8L3 (11732012_x_at) / Fold change /veh TNFAIP8L3 (11732012_x_at) / RFU MBOAT4 (11741988_at) / Fold change /veh MBOAT4 (11741988_at) / RFU 11764193_at / Fold change /veh 11764193_at / RFU TMEM53 (11763286_at) / Fold change /veh TMEM53 (11763286_at) / RFU MAGEB2 (11727129_at) / Fold change /veh MAGEB2 (11727129_at) / RFU TMEM200A (11744735_a_at) / Fold change /veh TMEM200A (11744735_a_at) / RFU CCDC152 (11751479_a_at) / Fold change /veh CCDC152 (11751479_a_at) / RFU FAM211A (11726209_a_at) / Fold change /veh FAM211A (11726209_a_at) / RFU RGS16 (11746705_a_at) / Fold change /veh RGS16 (11746705_a_at) / RFU VCAN (11755009_s_at) / Fold change /veh VCAN (11755009_s_at) / RFU RHOB (11743442_s_at) / Fold change /veh RHOB (11743442_s_at) / RFU RGS16 (11720943_a_at) / Fold change /veh RGS16 (11720943_a_at) / RFU RGS16 (11720944_at) / Fold change /veh RGS16 (11720944_at) / RFU, VPS4B / Fold change vs veh, VPS4B / RFU, CREB1 / Fold change vs veh, CREB1 / RFU, DNAJC13 / Fold change vs veh, DNAJC13 / RFU, GNAQ / Fold change vs veh, GNAQ / RFU, CDK5R1 / Fold change vs veh, CDK5R1 / RFU, ZRANB3 / Fold change vs veh, ZRANB3 / RFU, CUL4A / Fold change vs veh, CUL4A / RFU, CCNY / Fold change vs veh, CCNY / RFU, UFL1 / Fold change vs veh, UFL1 / RFU, COG3 / Fold change vs veh, COG3 / RFU, DIAPH2 / Fold change vs veh, DIAPH2 / RFU, SKA2 / Fold change vs veh, SKA2 / RFU, AFF3 / Fold change vs veh, AFF3 / RFU, LMF1 / Fold change vs veh, LMF1 / RFU, IPO11 / Fold change vs veh, IPO11 / RFU, DFFB / Fold change vs veh, DFFB / RFU, FOXP1 / Fold change vs veh, FOXP1 / RFU, CARD8 / Fold change vs veh, CARD8 / RFU, STRN3 / Fold change vs veh, STRN3 / RFU, ADK / Fold change vs veh, ADK / RFU, RASSF2 / Fold change vs veh, RASSF2 / RFU, WIPF1 / Fold change vs veh, WIPF1 / RFU, LARP1B / Fold change vs veh, LARP1B / RFU, RASA1 / Fold change vs veh, RASA1 / RFU, RB1 / Fold change vs veh, RB1 / RFU, PPFIA1 / Fold change vs veh, PPFIA1 / RFU, MAT2A / Fold change vs veh, MAT2A / RFU, CCT5 / Fold change vs veh, CCT5 / RFU, WDR92 / Fold change vs veh, WDR92 / RFU, CUX1 / Fold change vs veh, CUX1 / RFU, TTC7A / Fold change vs veh, TTC7A / RFU, TMEM135 / Fold change vs veh, TMEM135 / RFU, DEPTOR / Fold change vs veh, DEPTOR / RFU, CPM / Fold change vs veh, CPM / RFU, DNAJB6 / Fold change vs veh, DNAJB6 / RFU, CACNA2D3 / Fold change vs veh, CACNA2D3 / RFU, DTX4 / Fold change vs veh, DTX4 / RFU, TFCP2 / Fold change vs veh, TFCP2 / RFU, GMCL1 /// GMCL1P1 / Fold change vs veh, GMCL1 /// GMCL1P1 / RFU, AEBP2 / Fold change vs veh, AEBP2 / RFU, SNHG1 /// SNORD22 /// SNORD25 /// SNORD26 /// SNORD27 /// SNORD28 /// SNORD29 /// SNORD31 / Fold change vs veh, SNHG1 /// SNORD22 /// SNORD25 /// SNORD26 /// SNORD27 /// SNORD28 /// SNORD29 /// SNORD31 / Fold change (Aza/veh), C12orf56 (ProbeSet 11735607_a_at) / Fold change (ACY-1035/veh), C12orf56 (ProbeSet 11735607_a_at) / Fold change (Aza/veh), FGFR1OP (ProbeSet 11751329_s_at) / Fold change (ACY-1035/veh), FGFR1OP (ProbeSet 11751329_s_at) / Fold change (Aza/veh), VPS36 (ProbeSet 11739960_a_at) / Fold change (ACY-1035/veh), VPS36 (ProbeSet 11739960_a_at) / RFU SYPL1 (11715823_x_at) / Fold change /veh SYPL1 (11715823_x_at) / RFU IGFBP7 (11715501_s_at) / Fold change /veh IGFBP7 (11715501_s_at) / RFU REEP3 (11722064_at) / Fold change /veh REEP3 (11722064_at) / RFU IGLL1 (11728026_x_at) / Fold change /veh IGLL1 (11728026_x_at): dose or concentration left out as unconfirmed
Details: MV-4-11 cells, 48 hours

## Nc1ncn([C@@H]2O[C@H](CO)[C@@H](O)[C@H]2O)c(=O)n1 [azacitidine]
  Fold change /veh C10orf10 (11716521_a_at): 1.13
